Source: patent US20230202997A1, “CHROMANOL, QUINONE OR HYDROQUINONE COMPOUNDS FOR TREATMENT OF SEPSIS” (Sulfateq B.V., priority 2020, published 2023)

Key:
HUVEC = experiment: LPS-induced mitochondrial oxidative stress in HUVEC (MitoSOX); type: cell-based, Human; details: SUL-138 added one hour prior to LPS
Procedure: Human Umbilical Vein Endothelial cells (HUVEC) were obtained from the RuG/UMCG Endothelial Cell Facility. Primary isolates of umbilical cords were mixed and subsequently cultured on HUVEC culture medium, consisted of RPMI 1640 (Lonza, art.nr. BE12-115F) supplemented with 20% heat-inactivated fetal calf serum (ThermoFisher Scientific, art.nr. 10082147), 2 mM 1-glutamine (Life Technologies art.nr. 25030), 5 U/ml heparin (Leo Pharmaceutical Products), 1% Penicillin/Streptomycin (Sigma-Aldrich art.nr. P4333), and 50 μg/ml EC growth factor supplement from (Sigma-Aldrich, art.nr. E2759).
Primary HUVECs were cultured in 75-cm2 tissue culture flasks (Corning, art.nr. 430720U) at 37° C. under 5% CO2/95% air. HUVECs were used for experiments up to passage 8. Experiments were performed in 6-well (Corning art.nr. 3506) or 96-well culture plates (Corning, art.nr. 3596), at 80% confluency. Cells were stimulated with LPS E. coli 0111:B4 (Sigma-Aldrich, art.nr. L2630) in different concentrations. Cells were detached with trypsin (Sigma-Aldrich, art.nr. 25300054). All compounds were dissolved in Hanks Balanced Salt Solution (Lonza, art.nr. 10-527F). […]
Cells and mitochondria were incubated and measured according to manufacturer's protocol in the Synergy H4 micro plate reader (Bio-Tek) at an excitation/emission rate of 548/574 nm.

IL-1β mRNA expression [1] = experiment: Endothelial inflammatory activation after endotoxin, IL-1β mRNA (Example 5); type: cell-based, Human; details: HUVEC; 10 μM for 30 min
Procedure: (§1) Human Umbilical Cord Endothelial Cells (HUVEC, Lonza CC-2519) were maintained on 1% gelatin-coated culture flasks in RPMI1640 medium containing 20% fetal bovine serum, 2 mM Glutamine (Sigma-Aldrich), 1% Penicillin-Streptomycin solution (Sigma-Aldrich) and 50 μg/ml Bovine Pituitary Extract (Invitrogen). HUVEC were passaged by trypsinization when the cultures reach a confluency of 70%. For all experiments, HUVEC were seeded at 0.6·10^5 cells/cm^2 and allowed to adhere for 24 hours.
HUVEC cells were lysed in triZOL reagens (Invitrogen) and total RNA isolated according to manufacturers' instruction. 1 μg total RNA per sample was reverse transcribed using the FirstAid Reverse Transcription Kit (ThermoFisher). Copy-DNA equivalents of 5 ng total RNA were amplified on a ViiA7 Real-time PCR system (ThermoFisher, Waltham, Mass.) using iTaq Universal SYBR Green Supermix (Bio-Rad, Hercules, Calif.) and primers specific for tumor necrosis factor alpha (TNFα; sense 5′-[…]-3′, antisense 5′-[…]-3′), interleukin 1 beta (IL-1β; sense 5′-[…]-3′, antisense 5′-[…]-3′), interleukin-6 (IL-6; sense 5′-[…]-3′, antisense 5′-[…]-3′) and beta actin (ACTB; sense 5′-[…]-3′, antisense 5′-[…]-3′) as loading control. Amplification was performed for 40 cycles of 95° C. for 30 s, 60° C. for 1 min. Relative mRNA expression was calculated according to the δδCt-method.

IL-1β mRNA expression [2] = experiment: Inhibition of LPS-induced IL-1β mRNA expression in HUVEC; type: cell-based, Human; details: 10 μM for 30 min, then LPS 24 hours
Procedure: as §1
HUVEC and NRK52E cells were pre-incubated with SUL compounds (10 μM) for 30 min and subsequently exposed to LPS for 24 hours under standard culture conditions. Cells were lysed in triZOL reagens (Invitrogen) and total RNA isolated according to manufacturers' instruction. 1 μg total RNA per sample was reverse transcribed using the FirstAid Reverse Transcription Kit (ThermoFisher). Copy-DNA equivalents of 5 ng total RNA were amplified on a ViiA7 Real-time PCR system (ThermoFisher, Waltham, Mass.) using iTaq Universal SYBR Green Supermix (Bio-Rad, Hercules, Calif.) and primers specific for tumor necrosis factor alpha, interleukin 1 beta, interleukin-6 and beta actin as loading control. Amplification was performed for 40 cycles of 95° C. for 30 s, 60° C. for 1 min. Relative mRNA expression was calculated as 2^−(Cq^gene^−Cq^reference^) and normalized to unstimulated control cells (100% inhibition) and vehicle-treated and LPS exposed cells (0% inhibition). The following primers were used: […]

[3] = system: CLP-induced kidney dysfunction; experiment: CLP sepsis model, serum urea and NGAL as kidney biomarkers; type: in vivo; details: CLP mice; SUL-138 5 mg/kg s.c. 2 h before and 8 h after surgery; 24 hours
Procedure: To induce sepsis, the standard cecal ligation and puncture (CLP) model was used. Animals were anesthetized by subcutaneous injection of xylazine/ketamine (100/10 mg/kg), followed by administration of buprenorphine (0.1 mg/kg) as analgesic. After confirmation of anesthesia by lack of response to paw pinch and eye reflex, the abdomen was shaved, cleaned, and de-germed using a povidone-iodine solution before a 1-cm midline incision was made. The cecum was ligated with a 6-0 suture at half the distance between distal pole and the base of the cecum and punctured once with a 21-Gauge needle (‘through-and-through’ from mesenteric toward anti-mesenteric direction) which is an accepted model for ‘mid-grade’ sepsis. A small amount of stool (2-3 mm) was then extruded to ensure wound patency. The cecum was repositioned, thereby taking care not to spill fecal material on the wound edges, followed by closure of the abdomen by running sutures to the abdominal musculature and short interrupted sutures to the skin. Next, 1 ml of saline (warmed, 0.9% NaCl s.c.) was administered to compensate for the expected relative volume depletion due to the onset of sepsis. […]
Furthermore, the amount of NGAL and urea were measured in serum.

CLP-induced sepsis = experiment: Cecal ligation and puncture (CLP) sepsis model, xyphoid temperature; type: in vivo; details: CLP mice; SUL-138 5 mg/kg s.c. 2 hours before and 8 hours after surgery; 24 hr after procedure
Procedure: Male C57/BL6J mice were housed at room temperature at a light-dark cycle of 12:12 hour. Animals were fed ad libitum using standard animal lab chow and they had free access to drinking water at all times.
To induce sepsis, the standard cecal ligation and puncture (CLP) model was used. Animals were anesthetized by subcutaneous injection of xylazine/ketamine (100/10 mg/kg), followed by administration of buprenorphine (0.1 mg/kg) as analgesic. After confirmation of anesthesia by lack of response to paw pinch and eye reflex, the abdomen was shaved, cleaned, and de-germed using a povidone-iodine solution before a 1-cm midline incision was made. The cecum was ligated with a 6-0 suture at half the distance between distal pole and the base of the cecum and punctured once with a 21-Gauge needle (‘through-and-through’ from mesenteric toward anti-mesenteric direction) which is an accepted model for ‘mid-grade’ sepsis. A small amount of stool (2-3 mm) was then extruded to ensure wound patency. The cecum was repositioned, thereby taking care not to spill fecal material on the wound edges, followed by closure of the abdomen by running sutures to the abdominal musculature and short interrupted sutures to the skin. Next, 1 ml of saline (warmed, 0.9% NaCl s.c.) was administered to compensate for the expected relative volume depletion due to the onset of sepsis.
Mice recovered at 26-28° C. […]

## Cc1c(C)c2c(c(C)c1O)CC[C@@](C)(C(=O)N1CCN(CCO)CC1)O2 [SUL-138, (S)-(6-hydroxy-2,5,7,8-tetramethylchroman-2-yl)(4-(2-hydroxyethyl)piperazin-1-yl)methanone]
HUVEC
  LPS induced mitochondrial oxidative stress (MitoSOX): reduces LPS induced mitochondrial oxidative stress
IL-1β mRNA expression [1]
  LPS-induced mRNA expression of IL-1β: precluded the LPS-induced increase in IL-1β and IL-6
IL-1β mRNA expression [2]
  inhibition of LPS-induced mRNA expression of IL-1β: 76.3 ± 7.9 %
[3]
  Serum NGAL level: not different from Sham operated animals
  Serum urea level: not different from Sham operated animals
CLP-induced sepsis
  xiphoid temperature: restored after 24 hours
